Experimental data: patent US4703058A, “β-methylene furanethanamines and use as anti-hypertensive agents” (Merrell Dow Pharmaceuticals Inc., priority 1986, dated 1987)

Legend:
[1] = target: T1, dopamine β-hydroxylase (DBH) (Bos taurus, UniProt P15101); assay: DBH inhibitory activity - in vitro (time-dependent inactivation; tyramine as substrate, oxygen uptake by polarographic electrode); type: biochemical
T1 sequence (P15101 1-610): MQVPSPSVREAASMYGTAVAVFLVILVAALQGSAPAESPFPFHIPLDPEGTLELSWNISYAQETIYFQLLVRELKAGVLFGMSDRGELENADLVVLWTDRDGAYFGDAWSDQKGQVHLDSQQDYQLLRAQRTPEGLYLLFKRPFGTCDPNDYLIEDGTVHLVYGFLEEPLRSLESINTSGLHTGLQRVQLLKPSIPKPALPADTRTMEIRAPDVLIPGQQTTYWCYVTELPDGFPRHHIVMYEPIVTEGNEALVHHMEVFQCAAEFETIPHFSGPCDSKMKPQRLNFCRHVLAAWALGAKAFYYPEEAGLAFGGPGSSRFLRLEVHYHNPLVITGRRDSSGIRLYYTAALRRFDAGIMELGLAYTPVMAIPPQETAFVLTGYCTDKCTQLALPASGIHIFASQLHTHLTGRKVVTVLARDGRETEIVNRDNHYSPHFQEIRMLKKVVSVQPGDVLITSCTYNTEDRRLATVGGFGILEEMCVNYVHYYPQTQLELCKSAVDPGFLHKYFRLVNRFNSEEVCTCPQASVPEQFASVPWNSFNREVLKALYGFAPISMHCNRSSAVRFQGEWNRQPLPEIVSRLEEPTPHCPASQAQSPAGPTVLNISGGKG
Protocol: The dopamine β-hydroxylase inhibitory properties of the compounds of this invention can readily be determined by standard and well known procedures such as those procedures set forth in U.S. Pat. No. 4,415,191. For example, determination of whether the DBH inhibition allows time-dependent kinetics is exemplified by the procedure wherein enzymatic oxygenation by DBH is determined in aqueous solution in the presence of molecular oxygen, an electron donor such as ascorbate, and the necessary cofactors for the enzyme at a pH of 5 and a temperature of 20°-40° C., preferrably 37° C. The test compound is added at the desired concentration, and the system is incubated. At different time intervals, aliquots are taken and DBH activity is measured using tyramine as the substrate and the reaction followed by measuring the oxygen uptake using a polarographic electrode and an oxygen monitor by the method of S. May et al., J. Biol. Chem. 256, 2258 (1981). The inhibition constants for the inactivation of DBH by each compound are then determined by conventional procedures such as the method of Kitz and Wilson, J. Biol. Chem. 237, 3245 (1962). When the compound shown in Table I was tested according to the above described procedure, the DBH inhibitory activity increased as a function of the time of incubation. The initial rate of decrease of activity increased with increasing concentration of inhibitor. The results in Table I indicate that β-methylene-2-furanethanamine is potent as illustrated by the rapid rate of inactivation (kinact) and low inhibition contant (KI).

hypertensive rats = assay: Antihypertensive activity - in vivo (hypertensive rats, blood pressure monitored continuously)
Protocol: The ability of the compounds of this invention to lower blood pressure can be determined in vivo using hypertensive rats according to standard and well known procedures. The test compound is administered intraperitoneally (ip) or orally (po) to rats and the blood pressure monitored continuously. Since DBH is a major enzyme in the synthetic pathway of the catecholamines, it would be expected that the presence of an inhibitor would act to decrease the amount of catecholamines produced, and thereby have an antihypertensive effect.

## C=C(CN)c1ccco1 [β-Methylene-2-Furanethanamine]
[1]; in words, from Table I
  DBH inhibition, result in words (potency): potent
[1]; inactivation of DBH, Kitz and Wilson method, pH 5, 20°-40° C., preferably 37° C., tyramine substrate
  Ki: 8 mM
[1]; rate of inactivation of DBH, Kitz and Wilson method, pH 5, 20°-40° C., preferably 37° C., tyramine substrate
  kinact: 6.67e-05 s⁻¹
Hypertensive rats; 10 mg/kg (ip)
  Maximum % Change Mean Blood Pressure: 18%
Hypertensive rats; 30 mg/kg (ip)
  Maximum % Change Mean Blood Pressure: 32%
